Experimental data reported in publication PMC7525662, “Preclinical dosimetry models and the prediction of clinical doses of novel positron emission tomography radiotracers” (Scientific Reports, 2020).
Marks after values point to notes of the source that are not given here.

Experiments:
[1] = OLINDA/EXM predicted clinical doses: adult male phantom, normalised τ, iterative; set-up: species or system Sprague–Dawley rats; settings: rat, in vivo
Experimental: PET studies were reconstructed using filtered-back projection (FBP) and Mediso’s iterative Tera-Tomo 3D reconstruction algorithm with the following settings: 4 iterations, 6 subsets, full detector model, normal regularization, spike filter on, voxel size 0.4 mm and 400‒600 keV energy window. PET data were corrected for randoms, scatter and attenuation. Time-activity curves for each source organ, whole-body and remainder of the body were plotted. […] Residence times (τ) were determined for each radiotracer in source organs, whole-body and remaining (any activity assigned to the whole-body but not assigned to a source organ). Each preclinical source organ’s τ was determined by calculating the area under its respective time-activity curve (activity normalised to the percentage maximum injected dose as a function of time) using the trapezoid method. […] From each individual animal, eight dosimetry models were constructed from all possible combinations of image reconstruction method (FBP or iterative), τ (non-normalised or normalised to human organ masses), and sex of phantom (male or female). Supplementary table 11. Predicted clinical absorbed organ doses and whole-body effective doses of PET radiotracers using normalised adult male source organ residence times from iterative reconstructions.

[2] = Whole-body PET biodistribution in rats; format: in vivo, Sprague–Dawley rats; settings: PET images, i.v. bolus, 240 min
Experimental: On the day of imaging, rats were anaesthetised with 2‒2.5% isoflurane (50/50 oxygen/nitrous oxide, 1 L/min), then transferred to the preclinical PET/CT scanner (nanoPET/CT, Mediso, Hungary) and placed in a supine position. A CT scan (semi-circular full trajectory, maximum field of view, 480 projections, 50 kVp, 300 ms and 1:4 binning) was acquired for attenuation correction.
Immediately after radiotracer administration, a 240 min emission scan using 4 beds (50% overlap) was obtained using 3-dimensional 1:5 mode and re-binned as follows: 7 × 1 min, 2 × 5 min and 4 × 10 min. Throughout the PET/CT scanning session, animal temperature and respiration rate were monitored and controlled.
PET studies were reconstructed using filtered-back projection (FBP) and Mediso’s iterative Tera-Tomo 3D reconstruction algorithm with the following settings: 4 iterations, 6 subsets, full detector model, normal regularization, spike filter on, voxel size 0.4 mm and 400‒600 keV energy window. PET data were corrected for randoms, scatter and attenuation.
Reconstructed whole-body PET/CT images were imported into PMOD 3.8 software (PMOD Technologies, Switzerland) and static regions-of-interest (ROIs) were selected in approximately every third axial slice of source organs in animal subjects, which included the kidneys (left and right), urinary bladder, lungs (right and left), heart, brain, liver and intestine. […]

| Compound | Effective Dose [1] | Estimated Absorbed Dose of Organ, Adrenals [1] | Estimated Absorbed Dose of Organ, Brain [1] | Estimated Absorbed Dose of Organ, Breasts [1] | Estimated Absorbed Dose of Organ, Gallbladder Wall [1] | Estimated Absorbed Dose of Organ, Heart Wall [1] | Estimated Absorbed Dose of Organ, Kidneys [1] | Estimated Absorbed Dose of Organ, LLI Wall [1] | Estimated Absorbed Dose of Organ, Liver [1] | Estimated Absorbed Dose of Organ, Lungs [1] | Estimated Absorbed Dose of Organ, Muscle [1] | Estimated Absorbed Dose of Organ, Osteogenic Cells [1] | Estimated Absorbed Dose of Organ, Pancreas [1] | Estimated Absorbed Dose of Organ, Red Marrow [1] | Estimated Absorbed Dose of Organ, Skin [1] | Estimated Absorbed Dose of Organ, Small Intestine [1] | Estimated Absorbed Dose of Organ, Spleen [1] | Estimated Absorbed Dose of Organ, Stomach Wall [1] | Estimated Absorbed Dose of Organ, Testes [1] | Estimated Absorbed Dose of Organ, Thymus [1] | other results |
| --- | --- | --- | --- | --- | --- | --- | --- | --- | --- | --- | --- | --- | --- | --- | --- | --- | --- | --- | --- | --- | --- |
| NOTA-RGDfK [existing Al^18F-labelled NOTA-RGDfK peptide PET radiotracer; precursor NOTA-RGDfK (1)] | 2.17E-02 mSv/MBq | 6.76E-03 mGy/MBq | 2.27E-03 mGy/MBq | 4.34E-03 mGy/MBq | 7.11E-03 mGy/MBq | 1.28E-02 mGy/MBq | 2.74E-02 ‡ mGy/MBq | 5.51E-02 § mGy/MBq | 7.32E-03 mGy/MBq | 6.59E-03 mGy/MBq | 6.45E-03 mGy/MBq | 8.36E-03 mGy/MBq | 6.93E-03 mGy/MBq | 6.11E-03 mGy/MBq | 4.44E-03 mGy/MBq | 9.30E-03 mGy/MBq | 6.39E-03 mGy/MBq | 6.44E-03 mGy/MBq | 8.41E-03 mGy/MBq | 5.44E-03 mGy/MBq | Estimated Absorbed Dose of Organ, Thyroid [1]: 5.10E-03 mGy/MBq; Estimated Absorbed Dose of Organ, ULI Wall [1]: 8.07E-03 mGy/MBq; Estimated Absorbed Dose of Organ, Urinary Bladder Wall [1]: 1.75E-01 † mGy/MBq; Estimated Absorbed Dose, Total Body [1]: 6.69E-03 mGy/MBq |
| O=C[C@H]([18F])[C@@H](O)[C@H](O)[C@H](O)CO [FDG, 2-deoxy-2-[^18F]fluoro-D-glucose] | 2.46E-02 mSv/MBq | 9.55E-03 mGy/MBq | 1.47E-02 mGy/MBq | 6.86E-03 mGy/MBq | 9.38E-03 mGy/MBq | 8.18E-02 ‡ mGy/MBq | 2.30E-02 mGy/MBq | 7.18E-02 § mGy/MBq | 9.11E-03 mGy/MBq | 1.46E-02 mGy/MBq | 8.37E-03 mGy/MBq | 1.16E-02 mGy/MBq | 1.00E-02 mGy/MBq | 8.31E-03 mGy/MBq | 5.99E-03 mGy/MBq | 1.15E-02 mGy/MBq | 8.72E-03 mGy/MBq | 9.21E-03 mGy/MBq | 9.57E-03 mGy/MBq | 9.60E-03 mGy/MBq | Estimated Absorbed Dose of Organ, Thyroid [1]: 7.39E-03 mGy/MBq; Estimated Absorbed Dose of Organ, ULI Wall [1]: 1.01E-02 mGy/MBq; Estimated Absorbed Dose of Organ, Urinary Bladder Wall [1]: 1.43E-01 † mGy/MBq; Estimated Absorbed Dose, Total Body [1]: 9.30E-03 mGy/MBq; organs with highest uptake [2]: brain, heart, kidneys and urinary bladder |
